Results published in patent EP1756142B1, “PSEUDOPEPTIDES GROWTH HORMONE SECRETAGOGUES” (Mediolanum Farmaceutici S.p.A., priority 2004, dated 2008).

What was measured:
[1] = tested on: human pituitary gland tissues; experiment: binding affinity to human pituitary gland tissues; conditions: compared with Ghrelin, hexarelin, MK 0677 and JMV 1843
[2] = tested on: GH release; experiment: stimulation of GH release in vitro
[3] = tested on: GH release; experiment: GH release in vivo after subcutaneous injection in neonatal rats

## CC(C)(N)C(=O)N[C@H](Cc1c[nH]c2ccccc12)C(=O)N[C@@H](C=NOCC(N)=O)Cc1c[nH]c2ccccc12 [(Ia), Aib-D-Trp-D-Trpψ[CH=N∼O]Gly-NH2]
[1]
  binding affinity: comparable to that of the natural ligand Ghrelin and superior to the binding affinity of the synthetic GH secretagogues
[2]
  stimulating the GH release in vitro: remarkably potent
[3]; in vivo
  stimulating the GH release in vivo: remarkably potent
[3]; neonatal rats, injected subcutaneously, compared with MK 0677 and hexarelin
  amount of growth hormone released: exceeded the amount released when the standard GH secretagogues MK 0677 and hexarelin were administered
